Laboratory results reported in ChEMBL document CHEMBL3885861, “Open TG-GATES”.

Species on record: Rattus norvegicus
Test: Open TG-GATES - Regimen: Single
Type: toxicity, organism-based, Sprague-Dawley
Parameters: regimen Single, gender Male, age 6 weeks
Conditions: in vivo, po, route gavage; for APTT / Bas / Eos / Fbg / Hb / Ht / Lym / MCH / MCHC / MCV / Mono / Neu / PT / Plat / RBC / Ret / WBC: tissue Blood; for KIDNEY_L / KIDNEY_R / KIDNEY_TOTAL: tissue Kidney; for ALP / AST / CRE / Cl / DBIL / GLC / IP / K / LDH / Na / PL / RALB / TBIL / TC / TG / TP / gamma-GTP / ALT: tissue Plasma
[1] = 0 mg/kg, 3 h, dose level Control
[2] = 0 mg/kg, 6 h, dose level Control
[3] = 0 mg/kg, 9 h, dose level Control
[4] = 0 mg/kg, 24 h, dose level Control

In the case of COc1cc2c(c(OC)c1OC)-c1ccc(OC)c(=O)cc1[C@@H](NC(C)=O)CC2 [COLCHICINE], the TERMINAL_BW [1] is reported as 221.7 g, the APTT [1] is reported as 16.2 s and the Bas [1] is reported as 0%. It also gave an Eos [1] of 0.8%, a Fbg [1] of 209.4 mg/dL and a Hb [1] of 13.1 g/dL. For the same compound, the Ht [1] was 39.6%, the Lym [1] was 81.8% and the MCH [1] was 21.6 pg. It also gave an MCHC [1] of 33.1%, an MCV [1] of 65.2 fL and a Mono [1] of 7%. The Neu [1] was 10.4%, the PT [1] was 11.8 s and the Plat [1] was 118.4 x10_4/uL. It also gave an RBC [1] of 608.4 x10_4/ul, a Ret [1] of 10.3% and a WBC [1] of 89.6 x10_2/uL. For the same compound, the KIDNEY_L [1] was 1 g, the KIDNEY_R [1] was 1.1 g and the KIDNEY_TOTAL [1] was 2 g. For the same compound, the ALP [1] was 835.6 IU/L, the AST [1] was 65.6 IU/L and the CRE [1] was 0.4 mg/dL. The Cl [1] was 103.4 meq/L, the DBIL [1] was 0.038 mg/dL and the GLC [1] was 208.6 mg/dL. The IP [1] was 9.3 mg/dL, the K [1] was 4.5 meq/L and the LDH [1] was 88.4 IU/L. It also gave a Na [1] of 140.2 meq/L, a PL [1] of 139.2 mg/dL and an RALB [1] of 3.6 g/dL. For the same compound, the TBIL [1] was 0.3 mg/dL, the TC [1] was 78.4 mg/dL and the TG [1] was 61 mg/dL. For the same compound, the TP [1] was 5.4 g/dL, the gamma-GTP [1] was 1.4 IU/L and the TERMINAL_BW [2] was 218.4 g. For the same compound, the APTT [2] was 16.3 s, the Bas [2] was 0% and the Eos [2] was 0.8%. It also gave a Fbg [2] of 222.4 mg/dL, a Hb [2] of 13.1 g/dL and a Ht [2] of 39.9%. The Lym [2] was 82.2%, the MCH [2] was 21.6 pg and the MCHC [2] was 33%. For the same compound, the MCV [2] was 65.4 fL, the Mono [2] was 6.6% and the Neu [2] was 10.4%. The PT [2] was 12 s, the Plat [2] was 110.7 x10_4/uL and the RBC [2] was 609.8 x10_4/ul. The Ret [2] was 9.6%, the WBC [2] was 104.3 x10_2/uL and the KIDNEY_L [2] was 1 g. For the same compound, the KIDNEY_R [2] was 1 g, the KIDNEY_TOTAL [2] was 2 g and the ALP [2] was 745.2 IU/L. It also gave an ALT [2] of 27.6 IU/L, an AST [2] of 59 IU/L and a CRE [2] of 0.5 mg/dL. For the same compound, the Cl [2] was 104 meq/L, the DBIL [2] was 0.036 mg/dL and the GLC [2] was 188.2 mg/dL. It also gave an IP [2] of 10.1 mg/dL, a K [2] of 4.6 meq/L and an LDH [2] of 77.2 IU/L. For the same compound, the Na [2] was 139 meq/L, the PL [2] was 135.2 mg/dL and the RALB [2] was 3.7 g/dL. The TBIL [2] was 0.4 mg/dL, the TC [2] was 73.2 mg/dL and the TG [2] was 48.4 mg/dL. The TP [2] was 5.5 g/dL, the gamma-GTP [2] was 1.6 IU/L and the TERMINAL_BW [3] was 218.9 g. It also gave an APTT [3] of 16.3 s, a Bas [3] of 0% and an Eos [3] of 0.8%. It also gave a Fbg [3] of 216.2 mg/dL, a Hb [3] of 12.8 g/dL and a Ht [3] of 38.9%. It also gave a Lym [3] of 85.4%, an MCH [3] of 21.6 pg and an MCHC [3] of 33%. The MCV [3] was 65.8 fL, the Mono [3] was 5.4% and the Neu [3] was 8.4%. For the same compound, the PT [3] was 12.1 s, the Plat [3] was 111 x10_4/uL and the RBC [3] was 591.6 x10_4/ul. It also gave a Ret [3] of 9.4%, a WBC [3] of 88.7 x10_2/uL and a KIDNEY_L [3] of 1 g. The KIDNEY_R [3] was 1.1 g, the KIDNEY_TOTAL [3] was 2.1 g and the ALP [3] was 948.4 IU/L. The ALT [3] was 28.8 IU/L, the AST [3] was 64.4 IU/L and the CRE [3] was 0.5 mg/dL. It also gave a Cl [3] of 105.2 meq/L, a DBIL [3] of 0.044 mg/dL and a GLC [3] of 199.8 mg/dL. It also gave an IP [3] of 9.9 mg/dL, a K [3] of 4.9 meq/L and an LDH [3] of 71.2 IU/L. It also gave a Na [3] of 137.6 meq/L, a PL [3] of 134.4 mg/dL and an RALB [3] of 3.8 g/dL. The TBIL [3] was 0.4 mg/dL, the TC [3] was 77.6 mg/dL and the TG [3] was 40 mg/dL. The TP [3] was 5.4 g/dL, the gamma-GTP [3] was 1.6 IU/L and the TERMINAL_BW [4] was 232.9 g. For the same compound, the APTT [4] was 16.4 s, the Bas [4] was 0% and the Eos [4] was 1.2%. The Fbg [4] was 215.8 mg/dL, the Hb [4] was 12.8 g/dL and the Ht [4] was 38.6%. It also gave a Lym [4] of 77.2%, an MCH [4] of 21.7 pg and an MCHC [4] of 33.1%. It also gave an MCV [4] of 65.5 fL, a Mono [4] of 7.2% and a Neu [4] of 14.6%. It also gave a PT [4] of 11.2 s, a Plat [4] of 118.5 x10_4/uL and an RBC [4] of 588.4 x10_4/ul. The Ret [4] was 10.2%, the WBC [4] was 102.4 x10_2/uL and the KIDNEY_L [4] was 1.1 g. It also gave a KIDNEY_R [4] of 1.1 g, a KIDNEY_TOTAL [4] of 2.2 g and an ALP [4] of 858 IU/L. For the same compound, the AST [4] was 61.2 IU/L, the CRE [4] was 0.5 mg/dL and the Cl [4] was 102.8 meq/L. It also gave a DBIL [4] of 0.022 mg/dL, a GLC [4] of 203 mg/dL and an IP [4] of 7.7 mg/dL. For the same compound, the K [4] was 4.9 meq/L, the LDH [4] was 86.2 IU/L and the Na [4] was 137.6 meq/L. The PL [4] was 156.8 mg/dL, the RALB [4] was 3.8 g/dL and the TBIL [4] was 0.4 mg/dL. The TC [4] was 84.8 mg/dL, the TG [4] was 122.8 mg/dL and the TP [4] was 5.7 g/dL. For the same compound, the gamma-GTP [4] was 1 IU/L and the TERMINAL_BW (2 mg/kg, 3 h, dose level Low) was 218.7 g.
